Test results: US8580496B2, “Method and kit for the detection of genes associated with PIK3CA mutation and involved in PI3K/AKT pathway activation in the ER-postitive and HER2-positive subtypes with clinical implications” (Universite Libre de Bruxelles, priority 2008, dated 2013)

What was measured:
[1] = tested on: PIK3CA mutant lines including MCF7 and T47D; experiment: Sensitivity of breast cancer cell lines to tamoxifen, PIK3CA mutant vs normal lines; type: cell-based
[2] = tested on: breast cancer patients; experiment: Clinical outcome of breast cancer patients treated with tamoxifen, by PIK3CA mutated signature; type: in vivo, human
Source text: Primary breast cancer tumour samples from a previously described “tamoxifen-only treated” data set (Loi, 2007; J. Clin Oncol., 25, 1239-46;) were collected for DNA extraction and mutation analysis. The inventors obtained DNA from 173 samples for PIK3CA mutation sequencing and from 131 samples for AKT1 mutation analysis. The median follow-up of these samples was 9.0 yrs (range: 8.2-9.8 yrs), with 45 (28%) distant metastatic events.
Part of the tamoxifen-treated dataset has previously been described (Loi, 2007). Another 77 primary breast cancer samples also treated with tamoxifen monotherapy with corresponding Affymetrix gene expression data was also used for the survival analysis.
The inventors have developed an index called the PIK3CA index that could measure the similarity between the expression profile of any given tumour sample and the PI3K/AKT pathway activation by breast cancers with a PIK3CA mutation.
Statistical analysis was performed using the SPSS statistical software package (SPSS Inc. Chicago, Ill.) version 13.0. […]
Breast cancer molecular subgroups were defined using a previously reported method of WIRAPATI ET AL, 2008, Breast cancer […], 10, R65. The gene expression grade index (GGI) was used as a quantification of the expression of proliferation genes (SOTRIOU ET AL, 2006). […]

## CC/C(=C(\c1ccccc1)c1ccc(OCCN(C)C)cc1)c1ccccc1 [tamoxifen]
[1]
  sensitivity to tamoxifen: more sensitive
[2]; Her2 positive BC patients with the mutated PIK3CA signature vs the other Her2 positive patients
  response to tamoxifen: responded better
[2]; luminal B tumours, higher vs lower expression levels of the PIK3CA signature (FIG. 4)
  benefit from tamoxifen (clinical outcome): benefit better
